Data: patent publication US4195101A, “2',6'-Dihydroxy-9-(2,5-dihydroxyphenyl)octylphenone and its use as an anti-oxidant” (The Lion Dentifrice Co. Ltd., priority 1977, dated 1980)

Columns and labels:
[1] = system: mouse; conditions: comparison value for BHA; cited from earlier work
[2] = Test II: oxygen absorption in corn salad oil, Warburg's manometer; conditions: 0.02% by weight in corn salad oil, 60° C.
Description: (§1) The above-obtained compound was tested for its anti-oxidative effects in terms of peroxide value by the active oxygen method (AOM) and also in terms of oxygen absorption. […] Each of the tests I and II are described below together with the results thereof.
The compound of the present invention was determined for the rate of oxygen absorption in a corn salad oil to which 0.02% by weight of the compound had been added. For the purpose, 2 grams of the corn salad oil sample was taken in the receptacle of Warburg's manometer with thermostat at 60°±0.1° C., which was shaken with 110 vibrations per minute in a vibration amplitude of 60 mm. The rate of oxygen absorption was determined by reading the manometer according to the procedure set forth in "Jikken Kagaku Koza" (Lectures in Experimental Chemistry), vol. 24, p. 85, 1958, Maruzen Publishing, Japan. In this testing, the receptacle was totally wrapped with an aluminum foil to prevent the photooxidation of the oil, and mercury was used as the manometer fluid in place of Brodie's solution in order to minimize any possible influence caused by fluctuations in the atmospheric pressure.
Further, in comparison, a similar test was conducted using the same corn salad oil with addition of 0.02% by weight of BHA or without addition of any anti-oxidant.

[3] = Test I: peroxide value of refined lard by the active oxygen method (AOM); conditions: 0.02% by weight in lard, 97.5° C.
Description: as §1
Varied amounts of the compound were admixed with and uniformly dissolved in portions of refined lard each weighing 20 g to prepare test samples. Each test sample was kept in an oil bath of thermostat at 97.5°±0.5° C., while air was forcedly blown into the lard at a rate of […].
The thus treated samples of the lard were analyzed for the peroxide value (POV for brevity) periodically or at certain intervals, in accordance with the modified Lea's method as described in "Yukagaku" (Journal of Japan Oil Chemist Society), vol. 19(15), p. 340, 1970.
In comparison, similar experiments were undertaken for the samples of the same lard with addition of BHA instead of the compound of the present invention or without addition of any anti-oxidant.

For COc1ccc(O)c(C(C)(C)C)c1 [BHA, butylhydroxyanisole, reference compound], the LD50 value [1] is listed as 1,100 mg/kg, the Oxygen absorption ([2]; 85 hours) is listed as 57.6 μ1/g and the Oxygen absorption ([2]; 140 hours) is listed as 116.2 μ1/g. It also gave an Oxygen absorption ([2]; 166 hours) of 174.8 μ1/g, an Oxygen absorption ([2]; 199 hours) of 219.0 μ1/g and an Oxygen absorption ([2]; 263 hours) of 478.9 μ1/g. The Oxygen absorption ([2]; 288 hours) was 697.8 μ1/g, the Oxygen absorption ([2]; 320 hours) was 922.9 μ1/g and the Oxygen absorption ([2]; 343 hours) was 1124.2 μ1/g. The Peroxide value ([3]; 8 hours) was 2.8 meq./kg, the Peroxide value ([3]; 16 hours) was 5.1 meq./kg and the Peroxide value ([3]; 24 hours) was 7.9 meq./kg. For the same molecule, the Peroxide value ([3]; 32 hours) was 13.8 meq./kg, the Peroxide value ([3]; 40 hours) was 28.9 meq./kg and the Peroxide value ([3]; 48 hours) was 33.1 meq./kg. It also gave a Peroxide value ([3]; 56 hours) of 43.1 meq./kg, a Peroxide value ([3]; 64 hours) of 97.3 meq./kg and a Peroxide value ([3]; 72 hours) of 296.7 meq./kg.
